What was measured:
[1] = test system: HMG-CoA reductase; assay: HMG-CoA reductase inhibition assay (in vitro); assay type: biochemical; details: IC50 compared with compactin determined simultaneously, compactin assigned 100; tested as sodium salt of dihydroxy acid form; solubilized rat liver microsomal enzyme
Experimental: The intrinsic HMG-CoA reductase inhibition activityof the claimed compounds is measured in the in vitro protocol published in J. Med. Chem., 28, p. 347-358 (1985) and described below:
Male Holtzman Sprague-Dawley rats (225-250 g) were kept on reversed lighting and fed Purina rat chow containing 3% cholestyramine for 7 days preceding their sacrifice by CO2 asphyxiation. Livers were removed 6 hours into the dark cycle and used immediately to prepare microsomes. […]
Test compounds or compactin (after first being converted to the sodium salt of their dihydroxy acid form in situ by addition of 1N NaOH (1 equivalent) were added to the assay system in 10-μL volumes at multiconcentration levels. After a 40-minutes incubation at 37° C. with shaking and exposure to air, the reaction was stopped by the addition of 0.4 mL of 8N HCl. After an additional 30-minute incubation at 37° C. to ensure the complete lactonization of mevalonic acid to mevalonolactone, 0.2 ml of the mixture was added to an 0.5×5.0 cm column containing 100-200 mesh BioRex 5, chloride form (Bio-Rad), wetted with distilled water, as described by Alberts et al., [J. Proc. Natl. Acad. Sci. U.S.A., 1980, 77, 3957]. […] Five milliliters of Aquasol-2 (New England Nuclear) was added to each vial, and radioactivity was measured in a Packard Tri Carb Prias scintillation counter. […]

[2] = Stability of free hydroxy acid on standing; assay type: physicochemical
Experimental: The sodium salt of the compound II from Example 11 is redissolved in 2 ml of ethanol-water (1:1) and added to 10 ml of 1N hydrochloric acid from which the hydroxy acid is extracted with ethyl acetate. The latter solvent is washed once with water, dried, and removed in vacuo with a bath temperature not exceeding 30° C.

Row | Relative Potency [1] | Compound | stability of hydroxy acid (reversion to lactone) [2]
1 | 59 | 6(R)-[2-[8(S)-(2,2-Dimethyl-3-methoxycarbonylpropionyloxy)-2(S),6(R)-dimethyl-1,2,6,7,8,8a-(R)-hexahydronaphthyl-1(S)]ethyl]-4(R)-hydroxy-3,4,5,6-tetrahydro-2H-pyran-2-one [Example 2] | 
2 | 87 | 6(R)-[2-[8(S)-(2,2-dimethyl-3-methoxy-3-oxopropionyloxy)-2(S),6(R)-dimethyl-1,2,6,7,8,8a(R)-hexahydronaphthyl-1(S)]ethyl]-4(R)-hydroxy-3,4,5,6-tetrahydro-2H-pyran-2-one [Example 1] | 
3 |  | COC(=O)C(C)(C)C(=O)O[C@H]1C[C@@H](C)C=C2C=C[C@H](C)[C@H](CC[C@@H](O)C[C@@H](O)CC(=O)O)[C@H]21 [Example 13] | slowly reverts to the lactone on standing

Reference: patent publication US4771071A, “Antihypercholesterolemic compounds” (Merck & Co., Inc., priority 1986, dated 1988)
